Earlier results as cited in patent US10328067B2, “Pharmaceutical oral dose formulation and composition of matter” (priority 2016, dated 2019).

Conditions: result in words; p-glycoprotein substrate

intestinal absorption: negligible intestinal absorption
SMILES: CC[C@]1(O)C[C@@H]2CN(CCc3c([nH]c4ccccc34)[C@@](C(=O)OC)(c3cc4c(cc3OC)N(C)[C@H]3[C@@](O)(C(=O)OC)[C@H](OC(C)=O)[C@]5(CC)C=CCN6CC[C@]43[C@@H]65)C2)C1 [vinblastine]
